From US20050095226A1, “Down-regulation of DNA repair to enhance sensitivity to p53-mediated suppression” (priority 1996, published 2005) come the findings set out here.

One test has as its system T98G parental cells. The test is described as follows: PCR stop assay for DNA damage (2.7 Kb HPRT fragment) in T98G parental cells. It counts as cell-based, human. The procedure: (§1) This assay has been described (Oshita and Saijo, 1994; Jannerwein and Eastman, 1991). The assay is based on the principle that every DNA lesion, including adducts produced by cisplatin, can potentially block the progression of the Taq polymerase and decrease the yield of a given PCR™ product. […] Furthermore, when whole cells are incubated with varying levels of cisplatin, the degree of inhibition of amplification of a specific PCR™ product from DNA purified from these cells, correlates closely with the amount of DNA damage (level of DNA platination) as measured by atomic adsorption (Jannerwein and Eastman, 1991). The following primers (used by Oshita and Saijo, 1994) which amplify a 2.7 Kb fragment of the human hypoxanthine phosphoribosyl transferase (HPRTase) gene were used:
(§2) As an internal control for the efficiency of the PCR™ reaction, a nested 5′ primer which amplifies a 150 bp fragment of the same gene was used:
At the cisplatin levels used to treat the cells, damage to the smaller fragment is undetectable. […] In some experiments, 3-aminobenzamide (10 mM), an inhibitor of ADP ribosylation and DNA repair (see Din et al., 1992) was added during the 6 hour recovery period. […] DNA was washed with 70% EtOH to remove salt, followed by 100% EtOH dried briefly, and resuspended at 1 mg/ml in sterile H2O. Quantitative PCR™ was performed in 50 μl aliquots using 0.5 μg DNA, 50 pmol of forward primer for 2.7 Kb fragment, 50 pmol reverse primer, and 5 pmol of forward primer for the 150 base fragment, 50 mM KCL, 10 nmM Tris pH 8.3, 1.5 mM MgCl2, […], 0.5 μl Tac polymerasse (Perkin Elmer), and 1 pmol radioactively end-labeled reverse primer (labeled with y-^32P-dATP). Amplification conditions were as follows: 1 cycle: 94° C., 1′30; 25 cycles: 94° (1 min)-57° (1 min)-70° (2′30″); 1 cycle:94° (1 min)-57° (1 min)-70° (7′). […] The gel was vacuum-dried for two hours onto filter paper and the PCR™-amplified 2.7 Kb and 150 bp bands were quantitated using an Ambis4000 Radioanalytic Imaging system (Ambis, Inc., San Diego, Calif.).

The subject of another test is T98G-mutant jun cells. The test can be described thus: PCR stop assay for DNA damage (2.7 Kb HPRT fragment) in T98G-mutant jun cells. It counts as cell-based, human. Conditions: varying concentrations. The procedure:
as §1, §2
At the cisplatin levels used to treat the cells, damage to the smaller fragment is undetectable. […] In some experiments, 3-aminobenzamide (10 mM), an inhibitor of ADP ribosylation and DNA repair (see Din et al., 1992) was added during the 6 hour recovery period. […] The gel was vacuum-dried for two hours onto filter paper and the PCR™-amplified 2.7 Kb and 150 bp bands were quantitated using an Ambis4000 Radioanalytic Imaging system (Ambis, Inc., San Diego, Calif.).

The test system of test [1] is 9L rat glioblastoma cells. The test is described as follows: Cell viability assay (MTS) in 9L rat glioblastoma cells. It counts as cell-based. The procedure:
(§3) T98G glioblastoma cells were obtained from ATCC and cultured at 37° C. 10% CO2 in Dulbecco's Modified Eagles Medium supplemented with 10% newborn calf serum. 9L rat glioblastoma cells were obtained from Carol Cruse (University of Colorado) and cultured at 37° C. in 10% CO2 in Dulbecco's Modified Eagles Medium supplemented with 10% fetal Calf serum. The T98G-LHCmjun clone (termed T98G mutant jun or T98G-mjun), as well as control empty vector modified clone (termed T98GLHCX) were obtained from Dr. Dan Mercola (Sidney Kimmel Cancer Center) and were cultured in the same way as were T98G cells except that 100 μg/ml hygromycin was added to the culture medium. The 98G-mjun is stably modified to express a dominant negative mutant of c-jun (the mutant was obtained by site-directed mutagenesis by M. Karin and colleagues and is described by Smeal et al. (1991). Mutant jun has ser→ala substitutions at positions 63 and 73, two sites of DNA damage-induced phosphorylation, and can therefore not be phosphorylated at these sites. 9LpCEPp53 (or 9LpCEP4, control) were cultured in the same way at 9L cells except that 50 μg/ml hygromycin was added to the medium.
Rat 9L glioblastoma cells express p53 mutated at codon 277 (J. Neuroonal. 19:259-268, 1994.) 9LpCEPp53 (or 9LpCEP4) were obtained by transducing 5×10^5 9L cells with 15 μG of pCEPp53 (or pCEP4) using Lipofectamine (GIBCO/BRL, Gaithersberg, Md.) following the manufacturer's instructions. Clones were selected in 50 μg/ml hygromycin and characterized for wild-type p53 expression by immunoprecipitation (immunoprecipitation procedure described in: Gjerset et al., Molec. Carcinog. 5:190-198, 1992) using the 1801 anti-p53 antibody specific for human p53 (p-Ab-2, Oncogene Science, Uniondale, N.Y.), and by the PG13 functional assay described above. pCEPp53 was derived by inserting the human wild-type p53 cDNA into the multicloning site of pCEP4.
(§4) Cells were infected when they were at 80% confluence with either 100 pfu per cell overnight in DMEM containing 2% heat-inactivated FBS (for T98G and clones derived from T98G) or at 50 pfu per cell for 2 hours (9L cells). The efficiency of infection was determined by staining a sample of the β-gal virus-infected cells at 48 hrs post-infection as described (Dannenerg and Saga, 1981).
(§5) Viability assays were performed in 96 wells plates 6-7 days after plating. Cells were plated at a starting cell number per well of 1000. Triplicate or quadruplicate wells were set up for each assay point. […] For cisplatin treatment, triplicate or quadruplicate wells were exposed for 1 hour to various concentrations of cisplatin (Platinol™), and then incubated in the absence of cisplatin for 7 days, during which time control (untreated) wells were in exponential phase growth. Viable cell number was based on the bioconversion of the tetrazolium compound, MTS, into formazan (Promega, Celltiter96™Aqeous), as determined by absorbance at […] using an ELISA reader. For 3-aminobenzamide (ABZ) treatment, triplicate or quadruplicate wells were treated with either 5 mM ABZ or 10 mM ABX. Fresh ABZ was added every two days and viability was scored as described above at 6 days. Assays involving the synthetic retinoid SR11220 were performed in the presence of charcoal-treated fetal bovine serum. Medium was replaced every two days with medium containing fresh retinoid.

The test system of another test is T47D breast cancer cells. The test can be described thus: Cell viability assay (MTS) in T47D breast cancer cells. It counts as cell-based. Conditions: for cell viability: one hour cisplatin, various concentrations, 7 days post-infection; for viability: 7 days. The procedure: Cells were infected when they were at 80% confluence with either 100 pfu per cell overnight in DMEM containing 2% heat-inactivated FBS (for T98G and clones derived from T98G) or at 50 pfu per cell for 2 hours (9L cells).
as §5

A further test concerns T98G glioblastoma cells. The test can be described thus: Cell viability assay (MTS) in T98G glioblastoma cells. It counts as cell-based. Conditions: for cell viability: 7 days post-treatment. The procedure:
as §3, §4, §5

Entries after “also recorded” stand apart in the source; their conditions may differ.

With `N.N.[Cl][Pt][Cl]` [cisplatin], the “DNA damage (percentage of control PCR signal)” value with T98G parental cells (six hours after 1.5 hour cisplatin treatment, no 3-aminobenzamide) is on record as “partially reduced; also recorded: no significant DNA damage remained”; in the test on T98G parental cells (zero hours after 1.5 hour treatment with varying concentrations of cisplatin), “considerable DNA damage”; with T98G-mutant jun cells (zero hour after 1.5 hours cisplatin), “high levels of DNA damage”. In addition, the “repair of DNA damage” value with T98G-mutant jun cells (six hours after 1.5 hours cisplatin) is given as “not able to be repaired”. For the same compound, the viability entry in test [1] (9L cells infected with p53 adenovirus, compared to βgal adenovirus, 50 μM cisplatin one day later, measured seven days after cisplatin) was “significant decrease in viability”; in the test on T47D breast cancer cells (T47D cells infected with βgal adenovirus control, 10^−8 M SR11220, 10 μM cisplatin or combination), “not reduced significantly”; in the test on T47D breast cancer cells (p53 adenovirus infected T47D cells, 10 μM cisplatin, 1 hour exposure), “an even greater effect on the reduction in viability”. Further, the cell viability result in test [1] (9L cells stably modified with wild-type p53 vector pCEPp53, compared to control vector pCEP4, one hour cisplatin, various concentrations, 7 days post-treatment) is “significantly reduced the viability”; in the test with T47D breast cancer cells (T47D cells infected with wild-type p53 adenovirus, two days post-infection), “decreased with increasing doses of cisplatin”; in the test with T47D breast cancer cells (control T47D cells infected with βgal-adenovirus) it was “significantly more refractory”; in the test on T98G glioblastoma cells (T98G cells stably modified with wild-type p53 vector pLp53RNL, one hour cisplatin, increasing doses), “reduced in a dose dependent manner”; in the test on T98G glioblastoma cells (control T98G cells stably modified with vector only, pLNRL, one hour cisplatin), “more resistant”. In addition, in the test with T98G glioblastoma cells (T98G cells infected with wild-type p53 adenovirus, one hour cisplatin, various concentrations, 7 days post-infection), the “cell growth / viability” value was “growth suppression in a dose dependent manner”. Besides, in the test with T98G glioblastoma cells (T98G cells infected with βgal adenovirus, increasing levels of cisplatin, 7 days post-infection), the growth rate result was “slightly reduce growth rate”.

For the compound `NC(=O)c1cccc(N)c1` [3-aminobenzamide], the “DNA damage (percentage of control PCR signal)” value with T98G parental cells (10 mM 3-aminobenzamide, six hours post treatment with varying concentrations of cisplatin) was “significant DNA damage”. Also, the viability entry in test [1] (9L cells stably expressing human wild-type p53 (pCEPp53), 5 mM 3-aminobenzamide for 6 days) was “low viability”; in test [1] (9L cells stably expressing human wild-type p53 (pCEPp53), 10 mM 3-aminobenzamide for 6 days), “even lower viability”. Also, the growth inhibition entry in test [1] (9L cells stably expressing only control vector pCEP4, both 5 mM and 10 mM 3-aminobenzamide, 6 days) is on record as “resistant to growth inhibition”.
